Measured values taken from PubChem BioAssay AID675 (The Scripps Research Institute Molecular Screening Center, 2007).
The source made the active and inactive calls.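 The calls were made as follows: active = EC50 at or below a set limit for turning on the RORA orphan receptor reporter; inactive = the rest.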

Biological target: Nuclear receptor ROR-alpha (Homo sapiens) (UniProt P35398)
Assay: activators of RORA ligand-binding domain fusion – cell-based, CHO-K1, Gal4-RORA LBD, luciferase luminescence, counter-screen for SF-1 activator project, dose response (AID 675)
Conditions: CHO-K1 RORA luciferase reporter, luminescence activation

Chain of Nuclear receptor ROR-alpha (Homo sapiens) (P35398 whole entry, looked up, the tested form may be a part): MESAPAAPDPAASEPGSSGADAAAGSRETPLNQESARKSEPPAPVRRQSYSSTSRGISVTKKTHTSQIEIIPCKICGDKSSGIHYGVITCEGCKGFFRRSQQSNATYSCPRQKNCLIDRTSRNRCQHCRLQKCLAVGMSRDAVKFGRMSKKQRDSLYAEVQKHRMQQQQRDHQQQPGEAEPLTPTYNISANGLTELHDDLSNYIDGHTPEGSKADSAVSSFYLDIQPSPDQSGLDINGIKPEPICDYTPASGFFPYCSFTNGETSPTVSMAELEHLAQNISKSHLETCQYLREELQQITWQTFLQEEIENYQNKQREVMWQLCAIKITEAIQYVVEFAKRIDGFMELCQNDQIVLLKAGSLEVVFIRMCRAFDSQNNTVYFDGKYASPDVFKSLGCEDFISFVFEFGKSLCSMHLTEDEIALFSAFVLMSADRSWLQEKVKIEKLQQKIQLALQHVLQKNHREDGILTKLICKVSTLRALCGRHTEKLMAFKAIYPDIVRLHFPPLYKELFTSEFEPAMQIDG

| SMILES | EC50 |
| --- | --- |
| Cc1ccc(C2/C(=C(\O)c3cnn(-c4ccccc4)c3C)C(=O)C(=O)N2CCN(C)C)o1 (stereo not drawn) | 4.13 µM |
| O=C1CCCC(O)=C1C=Nc1ccc(O)cc1 | > 99 µM (inactive) |
| COc1ccc(C(=O)/C=C/Nc2cccc(C)n2)cc1OC | 0.749 µM |
| COc1cc(C2C3C(=O)N(c4ccccc4)C(=O)C3ON2c2ccccc2)ccc1O (stereo not drawn) | > 33 µM (inactive) |
| CC1(C)CC(=O)C(C=Nc2ccccc2)=C(O)C1 | > 99 µM (inactive) |
| COC(=O)c1ccc(/C(O)=C(\C#N)c2nc3ccccc3s2)cc1 | 1.61 µM |
| CC1(C)CC(=O)C(C=Nc2ccc3[nH]ncc3c2)=C(O)C1 | 9.88 µM |
| C/C(N)=C(/C#N)C(=O)CSc1ccc2c(c1)OCCO2 | 1.17 µM |
